Measurements published in patent US20240215577A1, “FUNGICIDAL PYRIDONES” (FMC Corporation, priority 2021, published 2024).

Assays:
[1] = tested on: Puccinia recondita f. sp. tritici; assay: Test B: wheat leaf rust, preventive spray on wheat seedlings; type: in vivo; conditions: 50 ppm, 100 = 100% disease control, 0 = no control; for pest or weed control at 50 ppm: Puccinia recondita, read-out: Test B disease control rating
In short: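 Wheat seedlings sprayed to run-off with compound suspended at set ppm in 50/50 acetone/water (3% acetone pre-dissolution, 250 ppm PEG400); inoculated with rust spores next day. Held 24 h saturated at 20° C., then 7 days in growth chamber at 20° C.; visual rating, 0–100% disease control versus controls.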

Botrytis cinerea = assay: Test E: tomato Botrytis, preventive spray on tomato seedlings; type: in vivo; conditions: 50 ppm, 100 = 100% disease control, 0 = no control; for pest or weed control at 50 ppm: Botrytis cinerea, read-out: Test E disease control rating
In short: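 Compounds dissolved in acetone (3% of final volume), suspended in 50/50 acetone/water with 250 ppm PEG400, sprayed to run-off on seedlings. Spore inoculation next day; 48 h saturated atmosphere at 20° C, then 3 days at 24° C. Visual disease rating 0–100% control relative to controls.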

Phakopsora pachyrhizi = assay: Test D: Asian soybean rust, preventive spray on soybean seedlings; type: in vivo; conditions: 50 ppm, 100 = 100% disease control, 0 = no control; for pest or weed control at 50 ppm: Phakopsora pachyrhizi, 216 h, read-out: Test D disease control rating
In short: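 Soybean seedlings sprayed to run-off with compound suspension (ppm, in 50/50 acetone/water with 250 ppm PEG400), inoculated next day with P. pachyrhizi spores, held 24 h saturated at 22°C then 8 days at 22°C. Visual rating 0-100% disease control relative to controls.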

[2] = tested on: Blumeria graminis f. sp. tritici; assay: Test C: wheat powdery mildew, preventive spray on wheat seedlings; type: in vivo; conditions: 50 ppm, 100 = 100% disease control, 0 = no control; for pest or weed control at 50 ppm: Blumeria graminis, read-out: Test C disease control rating
In short: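 Preventive assay: wheat seedlings sprayed to run-off with compound at the stated ppm (acetone/water 50/50, 250 ppm PEG400), dusted with B. graminis f. sp. tritici spores the following day, then kept 8 days at 20°C. Disease control visually scored 0-100 versus controls.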

Alternaria solani = assay: Test F: tomato early blight, preventive spray on tomato seedlings; type: in vivo; conditions: 50 ppm, 100 = 100% disease control, 0 = no control; for pest or weed control at 50 ppm: Alternaria solani, read-out: Test F disease control rating
In short: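 Compounds in acetone/water (50/50) with 250 ppm PEG400 were sprayed to run-off on tomato seedlings and inoculated with Alternaria solani spores the next day. Plants were held in saturated humidity at 27° C for 48 h, then at 20° C for 3 days. Disease control was rated visually, 0–100, against controls.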

Zymoseptoria tritici = assay: Test A: wheat leaf blotch, preventive spray on wheat seedlings; type: in vivo; conditions: 50 ppm, 100 = 100% disease control, 0 = no control; for pest or weed control at 50 ppm: Zymoseptoria tritici, read-out: Test A disease control rating
In short: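 Wheat seedlings were sprayed to run-off with compound in acetone/water 50/50 containing 250 ppm PEG400 and inoculated with Z. tritici spores the next day. Plants were held 48 h saturated at 24 °C, then 17 days at 20 °C. Disease was rated 0–100% control relative to controls.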

Work on COc1cc(OC)c(Br)c(-c2cn(C)c(=O)c(Cl)c2-c2ccc(F)cc2F)c1 [Compound 9, 5-(2-bromo-3,5-dimethoxyphenyl)-3-chloro-4-(2,4-difluorophenyl)-1-methyl-2(1H)-pyridinone] yielded a melting point of 211 to 214 °C, a pest or weed control at 50 ppm [1] of 100% and a pest or weed control at 50 ppm (Botrytis cinerea) of 98%. The pest or weed control at 50 ppm (Phakopsora pachyrhizi) was 100%, the pest or weed control at 50 ppm [2] was 99% and the pest or weed control at 50 ppm (Alternaria solani) was 100%. The pest or weed control at 50 ppm (Zymoseptoria tritici) was 100%.

With COc1cc(OC)c(Cl)c(-c2cn(C)c(=O)c(C)c2-c2ccc(F)cc2Cl)c1 [Compound 13, 5-(2-chloro-3,5-dimethoxyphenyl)-4-(2-chloro-4-fluorophenyl)-1,3-dimethyl-2(1H)-pyridinone] the melting point was 140 to 143 °C, the pest or weed control at 50 ppm [1] was 100% and the pest or weed control at 50 ppm (Botrytis cinerea) was 94%. For the same molecule, the pest or weed control at 50 ppm (Phakopsora pachyrhizi) was 100%, the pest or weed control at 50 ppm [2] was 100% and the pest or weed control at 50 ppm (Alternaria solani) was 100%. For the same molecule, the pest or weed control at 50 ppm (Zymoseptoria tritici) was 100%.

Work on COc1ccc(Br)c(-c2cn(C)c(=O)c(Cl)c2-c2ccc(F)cc2F)c1 [Compound 20, 5-(2-bromo-5-methoxyphenyl)-3-chloro-4-(2,4-difluorophenyl)-1-methyl-2(1H)-pyridinone] yielded a melting point of 227 to 230 °C, a pest or weed control at 50 ppm [1] of 100% and a pest or weed control at 50 ppm (Botrytis cinerea) of 98%. For the same molecule, the pest or weed control at 50 ppm (Phakopsora pachyrhizi) was 97%, the pest or weed control at 50 ppm [2] was 98% and the pest or weed control at 50 ppm (Alternaria solani) was 99%. For the same molecule, the pest or weed control at 50 ppm (Zymoseptoria tritici) was 100%.

Work on COc1cc(OC)c(Cl)c(-c2cn(C)c(=O)c(Cl)c2-c2ccc(F)cc2F)c1 [Compound 29, 3-chloro-5-(2-chloro-3,5-dimethoxyphenyl)-4-(2,4-difluorophenyl)-1-methyl-2(1H)-pyridinone] yielded a melting point of 189 to 192 °C, a pest or weed control at 50 ppm [1] of 100% and a pest or weed control at 50 ppm (Botrytis cinerea) of 94%. The pest or weed control at 50 ppm (Phakopsora pachyrhizi) was 100%, the pest or weed control at 50 ppm [2] was 99% and the pest or weed control at 50 ppm (Alternaria solani) was 99%. The pest or weed control at 50 ppm (Zymoseptoria tritici) was 100%.

With COc1ccc(Cl)c(-c2cn(C)c(=O)c(Cl)c2-c2ccc(F)cc2F)c1 [Compound 30, 3-chloro-5-(2-chloro-5-methoxyphenyl)-4-(2,4-difluorophenyl)-1-methyl-2(1H)-pyridinone] the melting point was 192 to 195 °C, the pest or weed control at 50 ppm [1] was 100% and the pest or weed control at 50 ppm (Botrytis cinerea) was 94%. For the same molecule, the pest or weed control at 50 ppm (Phakopsora pachyrhizi) was 100%, the pest or weed control at 50 ppm [2] was 100% and the pest or weed control at 50 ppm (Alternaria solani) was 99%. The pest or weed control at 50 ppm (Zymoseptoria tritici) was 100%.

With COc1cc(OC)c(F)c(-c2cn(C)c(=O)c(Cl)c2-c2ccc(F)cc2F)c1 [Compound 51, 3-chloro-4-(2,4-difluorophenyl)-5-(2-fluoro-3,5-dimethoxyphenyl)-1-methyl-2(1H)-pyridinone] the melting point was 155 to 158 °C, the pest or weed control at 50 ppm [1] was 100% and the pest or weed control at 50 ppm (Botrytis cinerea) was 98%. It also gave a pest or weed control at 50 ppm (Phakopsora pachyrhizi) of 99%, a pest or weed control at 50 ppm [2] of 98% and a pest or weed control at 50 ppm (Alternaria solani) of 100%. It also gave a pest or weed control at 50 ppm (Zymoseptoria tritici) of 100%.

With C=CCn1cc(-c2cc(OC)ccc2Cl)c(-c2ccc(F)cc2Cl)c(Cl)c1=O [Compound 77] the “Test B disease control rating” value [1] was 74%, the “Test E disease control rating” value (Botrytis cinerea) was 91% and the “Test D disease control rating” value (Phakopsora pachyrhizi) was 0%. The “Test C disease control rating” value [2] was 0%, the “Test F disease control rating” value (Alternaria solani) was 0% and the “Test A disease control rating” value (Zymoseptoria tritici) was 40%.
